What is called EC50 is the midpoint of the concentration-response curve. The low end stands for greater potency, the high end for weaker potency. As a reminder, the IC50 is the point on the concentration scale where inhibition reaches its midpoint.

Like-named read-outs stand apart in the source and are kept apart here. Non-standard residues stand in square brackets, D forms with d. Residues, ends and D or L forms follow the SMILES beside them. Tic = O=C(O)[C@@H]1Cc2ccccc2CN1

Assay [1] concerns Adult CD1 mice. The assay is described as follows: Chronic constriction injury neuropathic pain model, von Frey and acetone tests. It is filed as in vivo, mouse. The note with it: intrathecal 100 pmol, 1 week after CCI. The text has this: Intrathecal injection of 1-stable chem (100 pmol), 1 week after CCI, reduces CCI-induced mechanical hypersensitivity (panels A+C) and cold allodynia (panel E). Intrathecal injection of ResolvinE1 (RvE1)(100 pmol), 1 week after CCI, reduces CCI-induced mechanical hypersensitivity (panels B+D) and cold allodynia (panel F). BL=baseline before surgery.
Adult CD1 mice (male, 25-35 g) were used for behavioral studies. Mice were group-housed and kept under a 12-hour light/dark cycle. […]
Nerve injury-induced mechanical allodynia and hypersensitivity were assessed by von Frey hairs as previously described (see Xu et al., Resolvin E1 inhibits neuropathic pain and spinal cord microglial activation following peripheral nerve injury, 2013, J. Neuroimmune Pharmacol, 8: 37-41). […] The 50% paw withdrawal threshold (PWT) was determined using Dixon's up-down method. For paw withdrawal frequency (PWF), the same von Frey hair (0.16 g) was applied 10 times and the number of positive responses to the stimulations counted. A positive response was scored if the mouse sharply withdrew the paw or flinched upon removal of the stimulus. […] In brief, a drop of acetone was placed against the plantar paw of the mouse and the mouse's response monitored for the next 20 seconds. […]

Assay [2] deals with T1, mouse CMKLR1 (Mus musculus, UniProt P97468).
T1 sequence (P97468 1-371): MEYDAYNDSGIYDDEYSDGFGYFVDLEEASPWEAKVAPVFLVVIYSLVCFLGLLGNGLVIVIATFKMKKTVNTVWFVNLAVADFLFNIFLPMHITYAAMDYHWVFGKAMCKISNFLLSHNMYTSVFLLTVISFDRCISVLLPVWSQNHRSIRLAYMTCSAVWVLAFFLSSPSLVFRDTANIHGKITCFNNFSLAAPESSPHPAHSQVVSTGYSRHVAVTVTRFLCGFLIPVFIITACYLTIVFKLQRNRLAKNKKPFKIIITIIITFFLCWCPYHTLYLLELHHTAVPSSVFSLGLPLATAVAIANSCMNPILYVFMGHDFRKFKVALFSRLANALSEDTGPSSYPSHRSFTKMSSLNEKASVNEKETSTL
The assay is described as follows: SRE-luciferase reporter gene assay in transfected HEK293 cells. The note with it: for Activity of membrane-tethered ligand at mouse CMKLR1: tethered ligand cDNA cotransfected, luciferase 24 hours after transfection. (Reporter assays use an easily measured gene product as a stand-in for the process of interest.)
Description: (§1) Receptor-mediated signaling was assessed as previously described. Briefly, HEK293 cells were plated at a density of 6,000 cells/well into 96-well clear-bottom plates and grown to ˜80% confluence. […] Expression of Gq5i66V directs signaling of the Gαi-coupled chemerin receptor to stimulation of a Gαq-dependent SRE5x-Luc-PEST reporter gene. For experiments investigating the agonist function of soluble and lipidated peptides, tethered ligand cDNA was not included in the transfection mixture. Twenty four hours after transfection, cells were stimulated with or without peptide agonist for 4 hours in serum-free medium. […] Following ligand stimulation, the media was aspirated and luciferase activity measured using SteadyLite reagent and quantified using a TopCount NTX. A β-galactosidase assay was then performed following assessment of luminescence. Cleavage of 2-nitrophenyl β-D-galactopyranoside substrate was quantified after incubation of cell lysates at 37° C. for 30 to 60 minutes by measuring the optical density at 420 nm on a SpectraMax microplate reader. Luciferase reporter gene activities were normalized to corresponding β-galactosidase activity controls.
(§2) HEK293 cells were transiently transfected with cDNAs encoding i) human or mouse CMKLR1, ii) a SRE5x-Luc reporter gene, iii) a Gαq5i66V chimera, and iv) a β-galactosidase control. Twenty-four hours after transfection, cells were stimulated with ligand for 4 hours and luciferase activity determined as described in Experimental Procedures. Luciferase activity was normalized relative to the maximal value observed using saturating concentrations of the corresponding soluble ligand (=100%). […] As a next step, the effect of membrane anchoring on chemerin activity was examined. […] HEK293 cells were transiently transfected with cDNAs encoding i) various tethered ligands, ii) human or mouse CMKLR1, iii) a SRE5x-Luc reporter gene, iv) aGαq5i66V chimera, and v) a β-galactosidase control. Twenty-four hours after transfection, luciferase activity was determined as described in Experimental Procedures.
(§3) HEK293 cells were transiently transfected with cDNAs encoding i) 8 ng of various tethered ligands, ii) human or mouse CMKLR1, iii) a SRE5x-Luc reporter gene, iv) a Gαq5i66V chimera, and v) a β-galactosidase control. Twenty-four hours after transfection, luciferase activity was determined as described in Experimental Procedures.

In assay [3] the target is T2, human CMKLR1 (Homo sapiens, UniProt Q99788).
T2 sequence (Q99788 1-373): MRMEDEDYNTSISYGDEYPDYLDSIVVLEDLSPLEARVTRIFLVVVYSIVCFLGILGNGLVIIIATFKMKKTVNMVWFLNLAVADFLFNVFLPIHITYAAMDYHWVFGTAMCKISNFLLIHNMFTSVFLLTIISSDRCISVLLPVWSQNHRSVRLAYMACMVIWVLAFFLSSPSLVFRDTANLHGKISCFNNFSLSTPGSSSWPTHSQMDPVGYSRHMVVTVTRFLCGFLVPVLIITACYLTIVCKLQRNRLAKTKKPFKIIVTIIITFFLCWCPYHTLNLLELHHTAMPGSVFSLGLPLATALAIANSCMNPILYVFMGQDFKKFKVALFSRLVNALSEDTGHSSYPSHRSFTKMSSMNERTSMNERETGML
Described as above. The following applies: for Activity of membrane-tethered ligand at human CMKLR1: tethered ligand cDNA cotransfected, luciferase 24 hours after transfection.
Description: as §1, §2, §3

Assay [4] addresses T2, human CMKLR1. The assay is described as follows: Washout experiments (serial washes after 15 min ligand, luciferase readout). The note with it: three washes after 15 min ligand.
Description: (§4) Agonist activity was compared with and without serial washings shortly after addition of ligand. Briefly, HEK293 cells were plated and transfected as described above with the addition of a poly-L-lysine plate pretreatment step to enhance cell adhesion. Twenty-four hours after transfection, cells were stimulated with increasing concentrations of agonist for 15 minutes at 37° C. Selected wells were washed three times with serum-free media. Plates were then incubated for an additional 4 hours. Receptor mediated signaling was assessed using a luciferase based assay as described above.
(§5) HEK293 cells were transiently transfected with cDNAs encoding i) human or mouse CMKLR1, ii) a SRE5x-Luc reporter gene, iii) a Gαq5i66V chimera, and iv) a β-galactosidase control. Twenty-four hours after transfection, cells were stimulated with increasing concentrations of various ligands for 15 minutes. Selected wells were then washed three times with serum-free media and plates were further incubated for 4 hours.
Assay [5] relates to HEK293 cells transfected with vector control (pcDNA1.1). The assay is described as follows: Luciferase reporter assay in cells transfected with vector control. The following applies: cells transfected with pcDNA1.1 vector control. Format: cell-based, human.
Description: as §1
For assay [6], the target named is T1, mouse CMKLR1. The assay is described as follows: Washout experiments (serial washes after 15 min ligand, luciferase readout). The note with it: three washes after 15 min ligand.
Description: as §4, §5
The target in assay [7] is T3, CCK2R (Homo sapiens, UniProt P32239).
T3 construct: expressed in transfected cells; host or cells: HEK293
T3 sequence (P32239 1-447): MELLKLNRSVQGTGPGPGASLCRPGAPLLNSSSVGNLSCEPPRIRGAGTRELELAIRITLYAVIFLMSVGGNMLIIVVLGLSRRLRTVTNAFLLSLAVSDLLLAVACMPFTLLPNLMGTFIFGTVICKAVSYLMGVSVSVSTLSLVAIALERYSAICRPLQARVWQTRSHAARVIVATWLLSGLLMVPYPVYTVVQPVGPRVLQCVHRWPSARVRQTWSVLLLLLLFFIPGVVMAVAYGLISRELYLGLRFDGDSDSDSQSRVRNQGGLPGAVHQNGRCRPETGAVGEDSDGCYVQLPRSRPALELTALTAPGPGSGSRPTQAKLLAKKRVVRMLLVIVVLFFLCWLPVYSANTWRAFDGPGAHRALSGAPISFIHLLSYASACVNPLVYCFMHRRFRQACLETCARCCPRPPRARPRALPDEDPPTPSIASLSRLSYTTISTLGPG
The assay is described as follows: Antagonist inhibition of agonist-induced CCK2R signaling (luciferase). Format: cell-based. As for the experimental part:
A) YM022 blocks tethered CCK4-Gly mediated CCK2R signaling. HEK293 cells were cotransfected with cDNAs encoding: CCK2R, a 5X-SRE-Luc-pest reporter gene, tCCK4-Gly (as indicated), and a β-galactosidase gene to control for transfection efficiency. Four hours following transfection, cells were with treated with increasing concentrations of YM022 for 20 hours. […] B) YM022 blocks s-CCK-4-Gly-COOH and l-CCK4-Gly-COOH mediated activation of CCK2R. HEK293 cells were transfected as indicated above. Twenty hours after transfection, cells were with treated with increasing concentrations of YM022 together with either 10 μM of l-CCK4-Gly-COOH or s-CCK4-Gly-COOH. […] Abbreviations: tCCK4-Gly, tethered glycine extended CCK4; s-CCK4-Gly-COOH, soluble glycine extended CCK4 with a C-terminal free acid; 1-CCK4-Gly-COOH, lipidated glycine extended CCK4 with a C-terminal free acid; CCK2R, cholecystokinin 2 receptor.

Regarding `CC[C@@H](O)/C=C/C=C\C[C@@H](O)/C=C/C=C/C=C\[C@@H](O)CCCC(=O)O` [RvE1, reference compound], the “Time point at which a significant decrease in pain scores was observed” value in assay [1] is 1 h.
Turning to “tChem 149-157: membrane-tethered C-terminal chemerin peptide (amino acids 149-157), endogenous sequence ending phenylalanine-serine (MSTSMIRDVELAEEALPKKTGGPQGSRRCLFSLFIVAGATTLFCLLHFGVIYFPGQFAFS; left off: small tags and cut ends)”, the “Activity of membrane-tethered ligand at mouse CMKLR1” value (shortened to “Activity … at mouse CMKLR1”) in assay [2] was “activated”. Also, the entries for the “Activity of membrane-tethered ligand at human CMKLR1” value (“Activity … at human CMKLR1” for short) in assay [3] and in assay [3] (listed as FS) were “activated” and “comparable activity”, respectively.
For `CC(C)C[C@H](NC(=O)[C@H](Cc1ccccc1)NC(=O)[C@H](N)Cc1ccc(O)cc1)C(=O)N1CCC[C@H]1C(=O)N[C@H](CO)C(=O)N[C@@H](CCC(N)=O)C(=O)N[C@@H](Cc1ccccc1)C(=O)N[C@H](C)C(=O)N1Cc2ccccc2C[C@H]1C(=O)N[C@@H](CO)C(=O)O` [s-Stable Chem, reference compound] (H-[dY]FLP[dS]QF[dA][Tic]S-OH), the “Agonist activity after serial washes, human CMKLR1” value in assay [4] is listed as “rapidly decreased”. For the same molecule, the EC50 in assay [2] (pEC50, Mouse CMKLR1, no wash, mean ± S.E.M.) is 12 nM; in assay [3] (pEC50, Human CMKLR1, no wash, mean ± S.E.M.) it was 61.7 nM. For the same molecule, the “Agonist activity without CMKLR1 expression” value in assay [5] is given as “no agonist activity”. For the same molecule, the “Agonist activity after serial washes, mouse CMKLR1” value in assay [6] is “rapidly decreased”.
As to `Cc1cccc(NC(=O)N[C@@H]2N=C(c3ccccc3)c3ccccc3N(CC(=O)c3ccccc3C)C2=O)c1` [YM022], the IC50 in assay [7] (agonist l-CCK4-Gly-COOH 10 μM, 4 hours, read-out: IC50 for inhibition of l-CCK4-Gly-COOH induced CCK2R signaling) was 10.2 nM; in assay [7] (agonist s-CCK4-Gly-COOH 10 μM, 4 hours, read-out: IC50 for inhibition of s-CCK4-Gly-COOH induced CCK2R signaling), 0.84 nM; in assay [7] (agonist tCCK4-Gly (tethered), antagonist 20 hours, read-out: IC50 for inhibition of tCCK4-Gly induced CCK2R signaling) it was 0.54 nM.

B1: tChem 21-157: membrane-tethered full length chemerin (amino acids 21-157) (protein)
chain: MSTSMIRDVELAEEALPKKTGGPQGSRRCLFSLFIVAGATTLFCLLHFGVIELTEAQRRGLQVALEEFHKHPPVQWAFQETSVESAVDTPFPAGIFVRLEFKLQQTSCRKRDWKKPECKVRPNGRKRKCLACIKLGSEDKVLGRLVHCPIETQVLREAEEHQETQCLRVQRAGEDPHSFYFPGQFAFS
modifications: left off: small tags and cut ends
Consider B1, for which, in assay [2], the “Activity … at mouse CMKLR1” value is reported as “activated”. Also, the “Activity … at human CMKLR1” value in assay [3] was “activated”.

B2: tGalanin: negative control membrane-tethered ligand with the amino acid sequence of human galanin (protein)
chain: MSTSMIRDVELAEEALPKKTGGPQGSRRCLFSLFIVAGATTLFCLLHFGVIGWTLNSAGYLLGPHAVGNHRSFSDKNGLTS
modifications: left off: small tags and cut ends
Regarding B2, the “Activity … at mouse CMKLR1” value in assay [2] is “lack activity”. The “Activity … at human CMKLR1” value in assay [3] is listed as “lack activity”.

B3: tChem 1-163: membrane-tethered ligand encoding pre-prochemerin (amino acids 1-163), TNFα transmembrane domain (protein)
chain: MSTSMIRDVELAEEALPKKTGGPQGSRRCLFSLFIVAGATTLFCLLHFGVIMRRLLIPLALWLGAVGVGVAELTEAQRRGLQVALEEFHKHPPVQWAFQETSVESAVDTPFPAGIFVRLEFKLQQTSCRKRDWKKPECKVRPNGRKRKCLACIKLGSEDKVLGRLVHCPIETQVLREAEEHQETQCLRVQRAGEDPHSFYFPGQFAFSKALPRS
modifications: left off: small tags and cut ends
For B3, in assay [2], the “Activity … at mouse CMKLR1” value was “lack activity”. Besides, the “Activity … at human CMKLR1” value in assay [3] was “lack activity”.

The values are drawn from patent US11254720B2, “Methods and systems for designing and/or characterizing soluble lipidated ligand agents” (Tufts Medical Center, priority 2013, dated 2022).
